For data set [1] the following is noted: Li et al. 2003, Li et al. 2004; cited from earlier work.

Where two headings read alike, the source gives them in different places.

The source of these data is patent US7449571B2, “Halogenated aminoquinolines and oligonucleotides containing the same” (Board of Regents of the University of Nebraska, priority 2005, dated 2008).

For the compound `Nc1cc([C@H]2C[C@H](O)[C@@H](CO)O2)c2cc(F)ccc2n1` [antiAT-F, 2-amino-6-fluoro-4-(2′-deoxy-β-D-ribofuranosyl)-quinoline], the pKa (NaOAc buffer, pH 4.602-8.322, UV absorbance at 235 nm or fluorescence emission vs pH) is 6.7. For the same compound, the “fraction of antiAT-F protonated” value (pH 8.0) is “approximately 2%”. Take `Nc1nc([C@H]2C[C@H](O)[C@@H](CO)O2)c2ccccc2n1` [antiAT, 2-amino-4-(2′-deoxy-β-D-ribofuranosyl)quinazoline]: the pKa in data set [1] was 4.8.

With `Nc1cc([C@H]2C[C@H](O)[C@@H](CO)O2)c2ccccc2n1` [antiGC, 2-amino-4-(2′-deoxy-β-D-ribofuranosyl) quinoline], the pKa in data set [1] is 7.2.

The term pKa denotes the pH at which an ionisable group is half protonated.
